2 molecules from article PMC11650735, “Challenging Reported Frizzled-Targeting Compounds in Selective Assays Reveals Lack of Functional Inhibition and Claimed Profiles” (ACS Pharmacology & Translational Science, 2024) can be followed below.

Each structure is given as a SMILES string.

This experiment relates to individually reexpressed FZDs (1,2,4,5,7,8, and 10). Nature of the experiment: TopFlash in ΔFZD1–10 HEK293T, panel of individually reexpressed FZDs, Wnt3a-stimulated (collective statements). The settings on record: compared with pcDNA+CHIR99021.

Consider `NC(=O)N1c2ccccc2C=Cc2ccccc21` [carbamazepine], for which the “FZDs whose reintroduction reduces the compound's potency” value was “FZD5 and FZD8”.
In the case of `O=C(/C=C/c1ccc2c(c1)OCO2)Nc1ccc(-n2cnc3ccccc32)cc1` [SRI35959], the “FZDs whose reintroduction reduces the compound's potency” value was “FZD1,4, and 7”.
